Experimental data reported in publication PMC5702617, “Novel peptide probes to assess the tensional state of fibronectin fibers in cancer” (Nature Communications, 2017).
Read-outs that look alike come from different tables or passages of the source.

Key:
[1] = In vitro plasma stability; format: in vitro ADME, human; settings: RP-HPLC, means from three experiments; for stability in human blood plasma: 37°C
Protocol: The stability of peptides in blood is often limited as they are rapidly cleaved by catalytic enzymes found in tissue and blood, resulting in a short biological half-life. […] To verify whether the FnBPA5 peptide can be used for in vivo applications, we next performed a plasma stability test. The metabolic stability of the peptide radiotracer ^111In-FnBPA5 was tested in vitro by incubating the radiolabeled FnBPA5 at 37°C with human blood plasma, or water as control. The unbound peptide fraction was separated from the plasma proteins at different time points (0, 1, 24, 48, and 72 h) and was analyzed by reversed-phase high-pressure liquid chromatography (RP-HPLC).
After that, the samples were filtrated using a Thomson Single StEP Filter vial 0.45 μm PVDF (Thomson Instrument Company, Oceanside, USA) and the supernatant was analyzed by reversed-phase HPLC (Varian Prostar HPLC System, SpectraLab Scientific Inc., Canada) using a D-Bio Discovery Wide Pore C18 column (25 cm × 4.6 mm; 5 μm).

[2] = Biodistribution in PC-3 tumor grafted mice; format: in vivo, mouse; settings: female, CD1 nude, mouse, in vivo, iv, 150 kBq (2.4 nmol), total radioactivity, PC-3 grafted mice, i.v. 150 kBq (2.4 nmol), mean ± SD, n = 4; for tissue to tissue ratio at 1 h: 1 h p.i.; for tissue to tissue ratio at 4 h: 4 h p.i.; for tissue to tissue ratio at 24 h: 24 h p.i.; for tissue to tissue ratio at 96 h: 96 h p.i.
Protocol: (§1) Experiments were performed 3–4 weeks after inoculation.
(§2) For the biodistribution experiments, PC-3 tumor grafted mice were injected into the tail vein with 150 kBq ^111In-FnBPA5 or ^111In-scrambled FnBPA5 (2.4 nmol, 100 µL PBS). For each peptide, groups of four mice were sacrificed at 1, 4, 24, and 96 h post injection. Blocking experiment (n = 4) was performed by injection of an excess of peptide (100 µg, 24 nmol in 100 µL PBS) directly before the administration of the corresponding radiolabeled peptide. The organs were collected, weighed and counted for activity with a γ counter (Packard Cobra II Auto, Gamma, PerkinElmer AG, Schwerzenbach, Switzerland) 4 h p.i. The results were expressed as a percentage of injected activity per gram of tissue (% IA per g tissue). The Student's t test analyses were considered as type 3 (two sample unequal variance) and statistical significance was assumed for p-values smaller than 0.05.

PC-3-bearing mice [3] = test: Biodistribution in PC-3 tumor grafted mice; format: in vivo, mouse; settings: PC-3 grafted mice, i.v. 150 kBq (2.4 nmol, 100 µL PBS), γ counter, mean ± SD, n = 4
Protocol: as §1, §2

PC-3-bearing mice [4] = test: SPECT/CT imaging of PC-3-bearing mice; format: in vivo, mouse
Protocol: Thirty-three days from the inoculation of the tumor cells, the mice were intravenously injected with ~15 MBq ^111In-FnBPA5 resp. ^111In-scrambled FnBPA5-NODAGA (2.4 nmol, 100 µL PBS) into the tail vein. […] The images were reconstituted and processed with InVivoScope® software (Bioscan Inc., Washington DC, USA).

PC-3-bearing mice [5] = test: In vivo blocking experiment in PC-3 tumor grafted mice; design: species or system mouse
Protocol: as §2

[6] = read-out: Tumor-to-kidney ratio
[7] = 10-fold excess of unlabeled FnBPA5 (24 nmol) pre-injected, 4 h p.i.
[8] = 4h p.i. blocking: corresponding unlabeled peptide (24 nmol) i.v. directly before the radiolabeled peptide, PC-3 grafted mice, mean ± SD, n = 4

CC[C@H](C)[C@H](NC(=O)CNC(=O)[C@H](CCCCN)NC(=O)[C@@H](NC(=O)[C@H](CO)NC(=O)[C@H](CCC(=O)O)NC(=O)[C@H](CCC(=O)O)NC(=O)[C@H](CC(=O)O)NC(=O)[C@H](Cc1ccccc1)NC(=O)[C@H](CCC(=O)O)NC(=O)[C@@H](NC(=O)[C@H](CC(C)C)NC(=O)[C@H](CC(N)=O)NC(=O)[C@H](CO)NC(=O)[C@H](CCC(=O)O)NC(=O)[C@@H](NC(=O)[C@@H](NC(=O)[C@@H](NC(=O)[C@H](CCC(N)=O)NC(=O)CNC(=O)CNC(=O)CNC(=O)[C@@H](N)CSC1CC(=O)N(CCNC(=O)CCC(C(=O)O)N2CCN(CC(=O)O)CCN(CC(=O)O)CC2)C1=O)C(C)C)[C@@H](C)O)[C@@H](C)O)C(C)C)[C@@H](C)O)C(=O)N[C@H](C(=O)N[C@H](C(=O)NCC(=O)N[C@@H](C)C(=O)N[C@H](C(=O)N[C@@H](CO)C(=O)N[C@@H](CC(=O)O)C(=O)N[C@@H](Cc1c[nH]cn1)C(=O)N[C@H](C(=O)N[C@H](C(=O)N[C@H](C(=O)N[C@@H](CCC(=O)O)C(=O)N[C@@H](CC(=O)O)C(=O)N[C@H](C(=O)N[C@@H](CCCCN)C(=O)O)[C@@H](C)O)C(C)C)[C@@H](C)O)[C@@H](C)O)C(C)C)[C@@H](C)O)C(C)C (some centres unmarked) [111In-FnBPA5, metal not drawn]
stability in human blood plasma ([1]; 1 hour time point): high stability | stability in human blood plasma ([1]; later time point): very high stability | fraction intact in human blood plasma ([1]; filtered fresh human blood plasma, 37 °C, 72 h, 12 MBq): 80% | remaining at 72 h ([1]; filtered fresh human blood plasma, 37 °C, 72 h, 12 MBq, read-out: fraction intact in human blood plasma): ~80% | tissue to tissue ratio at 1 h ([2]; read-out: Tumor-to-blood ratio): 3.05 ± 1.65 | tissue to tissue ratio at 1 h [2, 6]: 0.03 | tissue to tissue ratio at 1 h ([2]; read-out: Tumor-to-liver ratio): 0.66 ± 0.22 | tissue to tissue ratio at 4 h ([2]; read-out: Tumor-to-blood ratio): 9.68 ± 1.83 | tissue to tissue ratio at 4 h [2, 6]: 0.03 | tissue to tissue ratio at 4 h ([2]; read-out: Tumor-to-liver ratio): 1.18 ± 0.08 | tissue to tissue ratio at 24 h ([2]; read-out: Tumor-to-blood ratio): 23.9 ± 2.52 | tissue to tissue ratio at 24 h [2, 6]: 0.04 | tissue to tissue ratio at 24 h ([2]; read-out: Tumor-to-liver ratio): 2.21 ± 0.25 | tissue to tissue ratio at 96 h ([2]; read-out: Tumor-to-blood ratio): 34 ± 18.4 | tissue to tissue ratio at 96 h [2, 6]: 0.05 ± 0.02 | tissue to tissue ratio at 96 h ([2]; read-out: Tumor-to-liver ratio): 2.11 ± 0.82 | Biodistribution, Blood (PC-3-bearing mice [3]; 1 h p.i.): 1.81 ± 0.62 IA% / g | Biodistribution, Bone (PC-3-bearing mice [3]; 1 h p.i.): 1.85 ± 0.21 IA% / g | Biodistribution, Heart (PC-3-bearing mice [3]; 1 h p.i.): 1.76 ± 0.51 IA% / g | Biodistribution, Intestines (PC-3-bearing mice [3]; 1 h p.i.): 2.27 ± 0.33 IA% / g | Biodistribution, Kidneys (PC-3-bearing mice [3]; 1 h p.i.): 140.58 ± 18.10 IA% / g | Biodistribution, Liver (PC-3-bearing mice [3]; 1 h p.i.): 7.52 ± 1.50 IA% / g | Biodistribution, Lung (PC-3-bearing mice [3]; 1 h p.i.): 2.88 ± 0.64 IA% / g | Biodistribution, Muscle (PC-3-bearing mice [3]; 1 h p.i.): 0.57 ± 0.07 IA% / g | Biodistribution, Pancreas (PC-3-bearing mice [3]; 1 h p.i.): 2.58 ± 1.27 IA% / g | Biodistribution, Spleen (PC-3-bearing mice [3]; 1 h p.i.): 7.01 ± 1.23 IA% / g | Biodistribution, Stomach (PC-3-bearing mice [3]; 1 h p.i.): 3.07 ± 0.39 IA% / g | Biodistribution, Blood (PC-3-bearing mice [3]; 4 h p.i.): 0.48 ± 0.08 IA% / g | Biodistribution, Bone (PC-3-bearing mice [3]; 4 h p.i.): 1.32 ± 0.26 IA% / g | Biodistribution, Heart (PC-3-bearing mice [3]; 4 h p.i.): 0.91 ± 0.06 IA% / g | Biodistribution, Intestines (PC-3-bearing mice [3]; 4 h p.i.): 1.77 ± 0.12 IA% / g | Biodistribution, Kidneys (PC-3-bearing mice [3]; 4 h p.i.): 130.66 ± 10.32 IA% / g | Biodistribution, Liver (PC-3-bearing mice [3]; 4 h p.i.): 3.85 ± 0.16 IA% / g | Biodistribution, Lung (PC-3-bearing mice [3]; 4 h p.i.): 1.98 ± 0.12 IA% / g | Biodistribution, Muscle (PC-3-bearing mice [3]; 4 h p.i.): 0.50 ± 0.17 IA% / g | Biodistribution, Pancreas (PC-3-bearing mice [3]; 4 h p.i.): 2.31 ± 1.18 IA% / g | Biodistribution, Spleen (PC-3-bearing mice [3]; 4 h p.i.): 3.35 ± 0.33 IA% / g | Biodistribution, Stomach (PC-3-bearing mice [3]; 4 h p.i.): 2.46 ± 0.36 IA% / g | Biodistribution, Tumor (PC-3-bearing mice [3]; 4 h p.i.): 4.51 ± 0.15 IA% / g | Biodistribution, Blood (PC-3-bearing mice [3]; 24 h p.i.): 0.15 ± 0.008 IA% / g | Biodistribution, Bone (PC-3-bearing mice [3]; 24 h p.i.): 0.86 ± 0.117 IA% / g | Biodistribution, Heart (PC-3-bearing mice [3]; 24 h p.i.): 0.31 ± 0.025 IA% / g | Biodistribution, Intestines (PC-3-bearing mice [3]; 24 h p.i.): 0.57 ± 0.039 IA% / g | Biodistribution, Kidneys (PC-3-bearing mice [3]; 24 h p.i.): 92.36 ± 14.25 IA% / g | Biodistribution, Liver (PC-3-bearing mice [3]; 24 h p.i.): 1.64 ± 0.26 IA% / g | Biodistribution, Lung (PC-3-bearing mice [3]; 24 h p.i.): 1.05 ± 0.11 IA% / g | Biodistribution, Muscle (PC-3-bearing mice [3]; 24 h p.i.): 0.24 ± 0.034 IA% / g | Biodistribution, Pancreas (PC-3-bearing mice [3]; 24 h p.i.): 0.78 ± 0.47 IA% / g | Biodistribution, Spleen (PC-3-bearing mice [3]; 24 h p.i.): 1.38 ± 0.068 IA% / g | Biodistribution, Stomach (PC-3-bearing mice [3]; 24 h p.i.): 0.51 ± 0.15 IA% / g | Biodistribution, Tumor (PC-3-bearing mice [3]; 24 h p.i.): 3.59 ± 0.53 IA% / g | Biodistribution, Blood (PC-3-bearing mice [3]; 96 h p.i.): 0.06 ± 0.027 IA% / g | Biodistribution, Bone (PC-3-bearing mice [3]; 96 h p.i.): 0.50 ± 0.09 IA% / g | Biodistribution, Heart (PC-3-bearing mice [3]; 96 h p.i.): 0.14 ± 0.017 IA% / g | Biodistribution, Intestines (PC-3-bearing mice [3]; 96 h p.i.): 0.13 ± 0.02 IA% / g | Biodistribution, Kidneys (PC-3-bearing mice [3]; 96 h p.i.): 39.69 ± 4.79 IA% / g | Biodistribution, Liver (PC-3-bearing mice [3]; 96 h p.i.): 0.89 ± 0.12 IA% / g | Biodistribution, Lung (PC-3-bearing mice [3]; 96 h p.i.): 0.32 ± 0.038 IA% / g | Biodistribution, Muscle (PC-3-bearing mice [3]; 96 h p.i.): 0.095 ± 0.02 IA% / g | Biodistribution, Pancreas (PC-3-bearing mice [3]; 96 h p.i.): 0.18 ± 0.046 IA% / g | Biodistribution, Spleen (PC-3-bearing mice [3]; 96 h p.i.): 0.73 ± 0.417 IA% / g | Biodistribution, Stomach (PC-3-bearing mice [3]; 96 h p.i.): 0.31 ± 0.052 IA% / g | Biodistribution, Tumor (PC-3-bearing mice [3]; 96 h p.i.): 1.87 ± 0.773 IA% / g | SPECT/CT distribution (PC-3-bearing mice [4]; ~15 MBq (2.4 nmol, 100 µL PBS) i.v., up to 96 h p.i.): mainly accumulated in the kidneys | SPECT/CT distribution after kidney removal (PC-3-bearing mice [4]; ~15 MBq i.v., 96 h p.i., post mortem, kidneys removed): predominant uptake in the tumor, liver, and spleen | effect of pre-injection of unlabeled peptide on accumulation (PC-3-bearing mice [5]; 24 nmol unlabeled peptide pre-injected, 4 h p.i., Student's t test, n = 4): significant reduction | blocking effect on uptake, liver (PC-3-bearing mice [5]; [7]): −58.2% | blocking effect on uptake, tumor tissue (PC-3-bearing mice [5]; [7]): −35.6% | Biodistribution with blocking, Blood (PC-3-bearing mice [5]; [8]): 0.29 ± 0.074 IA% / g | Biodistribution with blocking, Bone (PC-3-bearing mice [5]; [8]): 0.73 ± 0.31 IA% / g | Biodistribution with blocking, Heart (PC-3-bearing mice [5]; [8]): 0.37 ± 0.080 IA% / g | Biodistribution with blocking, Intestines (PC-3-bearing mice [5]; [8]): 0.53 ± 0.137 IA% / g | Biodistribution with blocking, Kidneys (PC-3-bearing mice [5]; [8]): 175.80 ± 32.48 IA% / g | Biodistribution with blocking, Liver (PC-3-bearing mice [5]; [8]): 1.61 ± 0.56 IA% / g | Biodistribution with blocking, Lung (PC-3-bearing mice [5]; [8]): 0.95 ± 0.317 IA% / g | Biodistribution with blocking, Muscle (PC-3-bearing mice [5]; [8]): 0.20 ± 0.12 IA% / g | Biodistribution with blocking, Pancreas (PC-3-bearing mice [5]; [8]): 0.96 ± 0.384 IA% / g | Biodistribution with blocking, Spleen (PC-3-bearing mice [5]; [8]): 1.33 ± 0.402 IA% / g | Biodistribution with blocking, Stomach (PC-3-bearing mice [5]; [8]): 1.13 ± 0.14 IA% / g | Biodistribution with blocking, Tumor (PC-3-bearing mice [5]; [8]): 2.91 ± 0.70 IA% / g
